From patent publication US20090018134A1, “Compounds - 945” (AstraZeneca AB, priority 2007, published 2009) come the findings set out here.

This assay has as its target T1, mTOR (Homo sapiens, UniProt P42345).
T1 construct: FLAG; made in house
In words: In Vitro mTOR Kinase Assay (Echo), Test (a)(ii). In kind it is biochemical. From the text:
(a)(ii) In Vitro mTOR Kinase Assay (Echo)
The assay used AlphaScreen technology (Gray et al., Analytical Biochemistry, 2003, 313: 234-245) to determine the ability of test compounds to inhibit phosphorylation by recombinant mTOR.
A C-terminal truncation of mTOR encompassing amino acid residues 1362 to 2549 of mTOR (EMBL Accession No. L34075) was stably expressed as a FLAG-tagged fusion in HEK293 cells as described by Vilella-Bach et al., […], 1999, 274, 4266-4272. The HEK293 FLAG-tagged mTOR (1362-2549) stable cell line was routinely maintained at 37° C. with 5% CO2 up to a confluency of 70-90% in Dulbecco's modified Eagle's growth medium (DMEM; Invitrogen Limited, Paisley, UK Catalogue No. 41966-029) containing 10% heat-inactivated foetal calf serum (FCS; Sigma, Poole, Dorset, UK, Catalogue No. F0392), 1% L-glutamine (Gibco, Catalogue No. 25030-024) and 2 mg/ml Geneticin (G418 sulfate; Invitrogen Limited, UK Catalogue No. 1013 1-027). Following expression in the mammalian HEK293 cell line, expressed protein was purified using the FLAG epitope tag using standard purification techniques.
Aliquots (120 nl […]) of each compound dilution were acoustically dispensed placed using a Labcyte Echo 550 into a well of a Greiner 384-well low volume (LV) white polystyrene plate (Greiner Bio-one).
These assay solutions were incubated for 2 hours at room temperature.
Each reaction was stopped by the addition of […] of a mixture of EDTA (50 mM), bovine serum albumin (BSA; 0.5 mg/mL) and Tris-HCl pH 7.4 buffer (50 mM) containing p70 S6 Kinase (T389) 1A5 Monoclonal Antibody (Cell Signalling Technology, Catalogue No. 9206B) and AlphaScreen Streptavidin donor and Protein A acceptor beads (200 ng; Perkin Elmer, Catalogue No. 6760002B and 6760137R respectively) were added and the assay plates were left overnight at room temperature in the dark. The resultant signals arising from laser light excitation at 680 nm were read using a Packard Envision instrument.
The phosphorylated biotinylated peptide that is associated with AlphaScreen Streptavidin donor beads forms a complex with the p70 S6 Kinase (T389) 1A5 Monoclonal Antibody that is associated with Alphascreen Protein A acceptor beads. Upon laser light excitation at 680 nm, the donor bead: acceptor bead complex produces a signal that can be measured. Accordingly, the presence of mTOR kinase activity results in an assay signal. In the presence of an mTOR kinase inhibitor, signal strength is reduced.
mTOR enzyme inhibition for a given test compound was expressed as an IC50 value.

Setting [1] is: table of enzyme assay Test (a)(ii), read-out: Test (a)(ii) IC50.
Where [2] appears, read: read-out: mTOR Kinase Assay (Echo).

Like-named read-outs stand apart in the source and are kept apart here.

T1 sequence (P42345 1362-2549): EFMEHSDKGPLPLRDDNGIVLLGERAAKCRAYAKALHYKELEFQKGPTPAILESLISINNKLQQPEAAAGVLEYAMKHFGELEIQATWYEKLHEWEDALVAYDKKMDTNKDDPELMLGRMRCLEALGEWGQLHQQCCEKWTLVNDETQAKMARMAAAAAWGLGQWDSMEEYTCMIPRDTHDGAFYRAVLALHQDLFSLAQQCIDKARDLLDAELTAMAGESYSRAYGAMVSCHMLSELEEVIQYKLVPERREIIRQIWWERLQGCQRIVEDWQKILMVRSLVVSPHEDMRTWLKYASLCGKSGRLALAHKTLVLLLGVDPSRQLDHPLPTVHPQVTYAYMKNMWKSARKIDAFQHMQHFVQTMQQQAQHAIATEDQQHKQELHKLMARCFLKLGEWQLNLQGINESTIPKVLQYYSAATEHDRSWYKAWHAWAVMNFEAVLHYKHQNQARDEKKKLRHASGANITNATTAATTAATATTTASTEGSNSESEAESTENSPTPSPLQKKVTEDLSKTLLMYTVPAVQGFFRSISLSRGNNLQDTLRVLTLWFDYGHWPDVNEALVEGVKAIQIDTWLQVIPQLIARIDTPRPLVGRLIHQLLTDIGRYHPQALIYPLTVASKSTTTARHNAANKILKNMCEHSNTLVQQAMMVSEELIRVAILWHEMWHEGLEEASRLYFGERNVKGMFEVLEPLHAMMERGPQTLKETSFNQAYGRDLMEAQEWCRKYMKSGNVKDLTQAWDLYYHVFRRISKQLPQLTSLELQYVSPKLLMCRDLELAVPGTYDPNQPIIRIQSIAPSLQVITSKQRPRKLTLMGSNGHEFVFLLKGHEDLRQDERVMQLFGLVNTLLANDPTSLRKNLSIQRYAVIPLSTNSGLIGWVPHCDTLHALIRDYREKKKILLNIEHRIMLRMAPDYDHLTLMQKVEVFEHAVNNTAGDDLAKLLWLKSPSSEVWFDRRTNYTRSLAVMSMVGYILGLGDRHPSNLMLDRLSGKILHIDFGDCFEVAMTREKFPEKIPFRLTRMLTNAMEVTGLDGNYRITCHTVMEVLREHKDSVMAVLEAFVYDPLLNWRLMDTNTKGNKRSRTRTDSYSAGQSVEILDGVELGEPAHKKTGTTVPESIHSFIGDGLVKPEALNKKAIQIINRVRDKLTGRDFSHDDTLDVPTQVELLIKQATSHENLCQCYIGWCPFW

For “1-[4-[4-[1-(2,4-difluorophenyl)sulfonylcyclopro-pyl]-6-[(3S)-3-methylmorpholin-4-yl]pyrimidin-2-yl]phenyl]-3-(2-hydroxyethyl)urea [Example 57b]”, the IC50 under setting [1] amounted to 4.57 nM.

On to “3-(2,2-difluoroethyl)-1-[4-[4-[1-(2,4-difluorophenyl)sulfonylcyclopro-pyl]-6-[(3S)-3-methylmorpholin-4-yl]pyrimidin-2-yl]phenyl]urea [Example 57d]”, for which the IC50 under setting [1] was 10 nM.

Regarding “3-(3-hydroxypropyl)-1-[4-[4-[1-(3-hydroxypropylsulfonyl)cyclopro-pyl]-6-[(3S)-3-methylmorpholin-4-yl]pyrimidin-2-yl]phenyl]thiourea [Example 37f]”, under setting [1], the IC50 turned out to be 120 nM.

Consider `CCNC(=O)Nc1ccc(-c2nc(N3CCOC[C@@H]3C)cc(C3(S(C)(=O)=O)CC3)n2)cc1` [Example 1, 3-Ethyl-1-[4-[4-[(3S)-3-methylmorpholin-4-yl]-6-(1-methylsulfonylcyclopropyl)pyrimidin-2-yl]phenyl]urea], for which the IC50 under setting [2] is 2.76 nM.

Turning to `CNC(=O)Nc1ccc(-c2nc(N3CCOC[C@@H]3C)cc(C3(S(C)(=O)=O)CC3)n2)cc1` [Example 1a], the IC50 under setting [2] worked out at 2.79 nM.

For `C[C@H]1COCCN1c1cc(C2(S(C)(=O)=O)CC2)nc(-c2ccc(NC(=O)NCc3cnn(C)c3)cc2)n1` [Example 2a, 1-[4-[4-[(3S)-3-methylmorpholin-4-yl]-6-(1-methylsulfonylcyclopropyl)pyrimidin-2-yl]phenyl]-3-[(1-methylpyrazol-4-yl)methyl]urea], the IC50 under setting [2] is 93.2 nM.

As for `C[C@H]1COCCN1c1cc(C2(S(C)(=O)=O)CC2)nc(-c2ccc(NC(=O)NCC(C)(C)O)cc2)n1` [Example 2aa, 3-(2-hydroxy-2-methylpropyl)-1-[4-[4-[(3S)-3-methylmorpholin-4-yl]-6-(1-methylsulfonylcyclopropyl)pyrimidin-2-yl]phenyl]urea], under setting [2], the IC50 is 27.4 nM.

For the molecule `C[C@H]1COCCN1c1cc(C2(S(C)(=O)=O)CC2)nc(-c2ccc(NC(=O)NC3(CO)CC3)cc2)n1` [Example 2ab, 3-[1-(hydroxymethyl)cyclopropyl]-1-[4-[4-[(3S)-3-methylmorpholin-4-yl]-6-(1-methylsulfonylcyclopropyl)pyrimidin-2-yl]phenyl]urea], the IC50 under setting [2] worked out at 55.3 nM.

On to `C[C@H]1COCCN1c1cc(C2(S(C)(=O)=O)CC2)nc(-c2ccc(NC(=O)NC3COC3)cc2)n1` [Example 2ac, 1-[4-[4-[(3S)-3-methylmorpholin-4-yl]-6-(1-methylsulfonylcyclopropyl)pyrimidin-2-yl]phenyl]-3-(oxetan-3-yl)urea], for which the IC50 under setting [2] came out at 6.41 nM.

Turning to `C[C@H]1COCCN1c1cc(C2(S(C)(=O)=O)CC2)nc(-c2ccc(NC(=O)Nc3ccn(C)n3)cc2)n1` [Example 2ad, 1-[4-[4-[(3S)-3-methylmorpholin-4-yl]-6-(1-methylsulfonylcyclopropyl)pyrimidin-2-yl]phenyl]-3-(1-methylpyrazol-3-yl)urea], under setting [2], the IC50 amounted to 0.705 nM.

As to `C[C@H]1COCCN1c1cc(C2(S(C)(=O)=O)CC2)nc(-c2ccc(NC(=O)Nc3ncns3)cc2)n1` [Example 2ae, 1-[4-[4-[(3S)-3-methylmorpholin-4-yl]-6-(1-methylsulfonylcyclopropyl)pyrimidin-2-yl]phenyl]-3-(1,2,4-thiadiazol-5-yl)urea], the IC50 under setting [2] was 0.72 nM.

Regarding `C[C@H]1COCCN1c1cc(C2(S(C)(=O)=O)CC2)nc(-c2ccc(NC(=O)NCC#N)cc2)n1` [Example 2af, 3-(cyanomethyl)-1-[4-[4-[(3S)-3-methylmorpholin-4-yl]-6-(1-methylsulfonylcyclopropyl)pyrimidin-2-yl]phenyl]urea], the IC50 under setting [2] was 46.2 nM.

With `C[C@H]1COCCN1c1cc(C2(S(C)(=O)=O)CC2)nc(-c2ccc(NC(=O)NCc3ncn[nH]3)cc2)n1` [Example 2ag, 1-[4-[4-[(3S)-3-methylmorpholin-4-yl]-6-(1-methylsulfonylcyclopropyl)pyrimidin-2-yl]phenyl]-3-(2H-1,2,4-triazol-3-ylmethyl)urea], the IC50 under setting [2] worked out at 14.9 nM.

On to `C[C@H]1COCCN1c1cc(C2(S(C)(=O)=O)CC2)nc(-c2ccc(NC(=O)NC3CCC3)cc2)n1` [Example 2c, 3-cyclobutyl-1-[4-[4-[(3S)-3-methylmorpholin-4-yl]-6-(1-methylsulfonylcyclopropyl)pyrimidin-2-yl]phenyl]urea], for which the IC50 is, setting by setting: under setting [2], 1.21 nM; under setting [1], 1.86 nM.

As for `C[C@H]1COCCN1c1cc(C2(S(C)(=O)=O)CC2)nc(-c2ccc(NC(=O)NCc3ncc[nH]3)cc2)n1` [Example 2d, 3-(1H-imidazol-2-ylmethyl)-1-[4-[4-[(3S)-3-methylmorpholin-4-yl]-6-(1-methylsulfonylcyclopropyl)pyrimidin-2-yl]phenyl]urea], the IC50 under setting [2] worked out at 23.9 nM.

`C[C@H]1COCCN1c1cc(C2(S(C)(=O)=O)CC2)nc(-c2ccc(NC(=O)NCCN(C)C)cc2)n1` [Example 2e, 3-(2-dimethylaminoethyl)-1-[4-[4-[(3S)-3-methylmorpholin-4-yl]-6-(1-methylsulfonylcyclopropyl)pyrimidin-2-yl]phenyl]urea]: the IC50 under setting [2] stood at 279 nM.

Consider `C[C@H]1COCCN1c1cc(C2(S(C)(=O)=O)CC2)nc(-c2ccc(NC(=O)NC(C)(C)CO)cc2)n1` [Example 2f, 3-(1-hydroxy-2-methyl-propan-2-yl)-1-[4-[4-[(3S)-3-methylmorpholin-4-yl]-6-(1-methylsulfonylcyclopropyl)pyrimidin-2-yl]phenyl]urea], for which the IC50 under setting [2] was 4.33 nM.

On to `C[C@H]1COCCN1c1cc(C2(S(C)(=O)=O)CC2)nc(-c2ccc(NC(=O)Nc3ccon3)cc2)n1` [Example 2g, 1-[4-[4-[(3S)-3-methylmorpholin-4-yl]-6-(1-methylsulfonylcyclopropyl)pyrimidin-2-yl]phenyl]-3-(1,2-oxazol-3-yl)urea], for which the IC50 is, setting by setting: under setting [2], 0.137 nM; under setting [1], 0.231 nM.

Consider `C[C@H]1COCCN1c1cc(C2(S(C)(=O)=O)CC2)nc(-c2ccc(NC(=O)Nc3ccccc3)cc2)n1` [Example 2h, 1-[4-[4-[(3S)-3-methylmorpholin-4-yl]-6-(1-methylsulfonylcyclopropyl)pyrimidin-2-yl]phenyl]-3-phenyl-urea], for which the IC50 under setting [2] stood at 0.272 nM.

Turning to `C[C@H]1COCCN1c1cc(C2(S(C)(=O)=O)CC2)nc(-c2ccc(NC(=O)NCCO)cc2)n1` [Example 2i, 3-(2-hydroxyethyl)-1-[4-[4-[(3S)-3-methylmorpholin-4-yl]-6-(1-methylsulfonylcyclopropyl)pyrimidin-2-yl]phenyl]urea], the IC50 under setting [2] was determined as 2.07 nM.

As for `CC(C)NC(=O)Nc1ccc(-c2nc(N3CCOC[C@@H]3C)cc(C3(S(C)(=O)=O)CC3)n2)cc1` [Example 2j, 1-[4-[4-[(3S)-3-methylmorpholin-4-yl]-6-(1-methylsulfonylcyclopropyl)pyrimidin-2-yl]phenyl]-3-propan-2-yl-urea], the IC50 under setting [2] stood at 12 nM.

Take `CCCNC(=O)Nc1ccc(-c2nc(N3CCOC[C@@H]3C)cc(C3(S(C)(=O)=O)CC3)n2)cc1` [Example 2k, 1-[4-[4-[(3S)-3-methylmorpholin-4-yl]-6-(1-methylsulfonylcyclopropyl)pyrimidin-2-yl]phenyl]-3-propyl-urea]: the IC50 by setting is: under setting [2], 4.06 nM; under setting [1], 3.81 nM.

Consider `CC(C)CNC(=O)Nc1ccc(-c2nc(N3CCOC[C@@H]3C)cc(C3(S(C)(=O)=O)CC3)n2)cc1` [Example 2l, 1-[4-[4-[(3S)-3-methylmorpholin-4-yl]-6-(1-methylsulfonylcyclopropyl)pyrimidin-2-yl]phenyl]-3-(2-methylpropyl)urea], for which the IC50 under setting [2] worked out at 11.6 nM.

On to `C[C@H]1COCCN1c1cc(C2(S(C)(=O)=O)CC2)nc(-c2ccc(NC(=O)NCC3CC3)cc2)n1` [Example 2m, 3-(cyclopropylmethyl)-1-[4-[4-[(3S)-3-methylmorpholin-4-yl]-6-(1-methylsulfonylcyclopropyl)pyrimidin-2-yl]phenyl]urea], for which, under setting [2], the IC50 was 5.89 nM.

`CC(CO)NC(=O)Nc1ccc(-c2nc(N3CCOC[C@@H]3C)cc(C3(S(C)(=O)=O)CC3)n2)cc1` (stereo partly drawn) [Example 2n, 3-(1-hydroxypropan-2-yl)-1-[4-[4-[(3S)-3-methylmorpholin-4-yl]-6-(1-methylsulfonylcyclopropyl)pyrimidin-2-yl]phenyl]urea]: the IC50 under setting [2] is 8.44 nM.
